Values joined by “and” are separate entries in the source; they are usually repeats but may differ in a detail not shown here. Identical values can stand only once.
What was measured:
Format in all cases: biochemical
Lck = molecular target: T1, Lck (Homo sapiens, UniProt P06239); assay: Kinase inhibition assay (33P transfer), Lck; conditions: Table 3, class symbols; read-out: Lck-1
T1 construct: Kinases are expressed as either kinase domains or full length constructs; made in house
Procedure, shortened: (§1)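 Measured by scintillation: radiolabelled phosphate added by tagged recombinant kinases to poly(Glu,Tyr) 4:1 or poly(Arg,Ser) 3:1 attached to microtiter wells, counted once free label was washed away with 0.5% phosphoric acid.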

Zap-70 = molecular target: T2, Zap-70 (Homo sapiens, UniProt P43403); assay: Kinase inhibition assay (33P transfer), Zap-70; conditions: Table 3, class symbols; read-out: Zap-1
T2 construct: Kinases are expressed as either kinase domains or full length constructs; made in house
T2 sequence (P43403 1-619): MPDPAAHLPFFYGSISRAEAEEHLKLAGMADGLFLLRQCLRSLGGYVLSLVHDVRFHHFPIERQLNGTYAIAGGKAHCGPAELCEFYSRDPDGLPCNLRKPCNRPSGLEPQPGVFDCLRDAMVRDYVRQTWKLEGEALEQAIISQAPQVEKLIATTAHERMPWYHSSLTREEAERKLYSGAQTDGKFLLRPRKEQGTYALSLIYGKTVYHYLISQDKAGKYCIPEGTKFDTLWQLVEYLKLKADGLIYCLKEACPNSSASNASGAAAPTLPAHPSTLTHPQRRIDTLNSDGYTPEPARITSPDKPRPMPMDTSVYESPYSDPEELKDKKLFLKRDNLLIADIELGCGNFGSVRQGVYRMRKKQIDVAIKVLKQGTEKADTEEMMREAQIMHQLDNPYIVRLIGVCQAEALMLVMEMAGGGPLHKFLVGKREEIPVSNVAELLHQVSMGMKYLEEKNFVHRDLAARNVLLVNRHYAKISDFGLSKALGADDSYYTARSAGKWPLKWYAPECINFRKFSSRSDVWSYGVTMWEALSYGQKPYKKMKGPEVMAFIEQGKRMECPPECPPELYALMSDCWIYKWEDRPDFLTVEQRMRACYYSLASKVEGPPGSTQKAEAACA
Procedure, shortened: as §1

Itk = molecular target: T3, Itk (Homo sapiens, UniProt Q08881); assay: Kinase inhibition assay (33P transfer), Itk; conditions: Table 3, class symbols; read-out: Itk-1
T3 construct: Kinases are expressed as either kinase domains or full length constructs; made in house
T3 sequence (Q08881 1-620): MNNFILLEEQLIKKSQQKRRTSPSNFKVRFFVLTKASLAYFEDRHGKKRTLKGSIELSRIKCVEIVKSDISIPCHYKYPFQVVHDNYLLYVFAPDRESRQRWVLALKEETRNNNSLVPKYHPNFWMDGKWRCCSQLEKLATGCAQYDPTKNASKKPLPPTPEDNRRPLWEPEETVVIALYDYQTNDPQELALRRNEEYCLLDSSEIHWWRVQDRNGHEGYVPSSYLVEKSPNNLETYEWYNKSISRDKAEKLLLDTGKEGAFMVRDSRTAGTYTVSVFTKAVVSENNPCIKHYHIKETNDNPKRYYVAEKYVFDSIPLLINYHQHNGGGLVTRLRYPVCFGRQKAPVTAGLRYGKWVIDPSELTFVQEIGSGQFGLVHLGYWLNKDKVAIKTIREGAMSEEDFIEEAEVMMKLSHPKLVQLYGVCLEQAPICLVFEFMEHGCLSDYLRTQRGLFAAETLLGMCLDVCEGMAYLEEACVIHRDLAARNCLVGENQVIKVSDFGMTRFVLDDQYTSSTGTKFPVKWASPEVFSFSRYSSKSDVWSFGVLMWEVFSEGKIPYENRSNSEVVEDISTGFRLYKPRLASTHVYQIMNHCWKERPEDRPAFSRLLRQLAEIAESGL
Procedure, shortened: (§2)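 Kinase domains or full-length enzymes, GST- or polyHis-tagged, were expressed in E. coli or baculovirus High Five cells and affinity-purified. Transfer of 33PO4 from ATP onto plate-bound poly(Glu,Tyr) 4:1 or poly(Arg,Ser) 3:1 was counted by liquid scintillation after a 0.5% phosphoric acid wash. IC50 = concentration halving incorporation.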

EGFR = molecular target: T4, EGFR (Homo sapiens, UniProt P00533); assay: Kinase inhibition assay (33P transfer), EGFR; conditions: Table 2, class symbols A-E; read-out: EGFR-1
T4 construct: Kinases are expressed as either kinase domains or full length constructs; made in house
Procedure, shortened: as §2

ErbB2 = molecular target: T5, ErbB2 (Homo sapiens, UniProt P04626); assay: Kinase inhibition assay (33P transfer), ErbB2; conditions: read-out: ErbB2-2
T5 construct: Kinases are expressed as either kinase domains or full length constructs; made in house
Procedure, shortened: as §2

Kdr = molecular target: T6, Kdr (Homo sapiens, UniProt P35968); assay: Kinase inhibition assay (33P transfer), Kdr; conditions: Table 3, class symbols; read-out: KDR-1
T6 construct: Kinases are expressed as either kinase domains or full length constructs; made in house
Procedure, shortened: as §1

c-Met = molecular target: T7, c-Met (Homo sapiens, UniProt P08581); assay: Kinase inhibition assay (33P transfer), c-Met; conditions: Table 2, class symbols A-E; read-out: Met-1
T7 construct: Kinases are expressed as either kinase domains or full length constructs; made in house
Procedure, shortened: as §2

AKT = molecular target: T8, AKT (Homo sapiens, UniProt Q9Y243); assay: Kinase inhibition assay (33P transfer), AKT; conditions: Table 2, class symbols A-E; read-out: AKT3-1
T8 construct: Kinases are expressed as either kinase domains or full length constructs; made in house
Procedure, shortened: as §1

IGFR-1 = molecular target: T9, IGFR-1 (Homo sapiens, UniProt P08069); assay: Kinase inhibition assay (33P transfer), IGFR-1; conditions: Table 2, class symbols A-E
T9 construct: Kinases are expressed as either kinase domains or full length constructs; made in house

PDGFRB = molecular target: T10, PDGFRB (Homo sapiens, UniProt P09619); assay: Kinase inhibition assay (33P transfer), PDGFRB; conditions: read-out: PDGFRB-1
T10 construct: Kinases are expressed as either kinase domains or full length constructs; made in house

T5 sequence (P04626 23-1255, species assumed): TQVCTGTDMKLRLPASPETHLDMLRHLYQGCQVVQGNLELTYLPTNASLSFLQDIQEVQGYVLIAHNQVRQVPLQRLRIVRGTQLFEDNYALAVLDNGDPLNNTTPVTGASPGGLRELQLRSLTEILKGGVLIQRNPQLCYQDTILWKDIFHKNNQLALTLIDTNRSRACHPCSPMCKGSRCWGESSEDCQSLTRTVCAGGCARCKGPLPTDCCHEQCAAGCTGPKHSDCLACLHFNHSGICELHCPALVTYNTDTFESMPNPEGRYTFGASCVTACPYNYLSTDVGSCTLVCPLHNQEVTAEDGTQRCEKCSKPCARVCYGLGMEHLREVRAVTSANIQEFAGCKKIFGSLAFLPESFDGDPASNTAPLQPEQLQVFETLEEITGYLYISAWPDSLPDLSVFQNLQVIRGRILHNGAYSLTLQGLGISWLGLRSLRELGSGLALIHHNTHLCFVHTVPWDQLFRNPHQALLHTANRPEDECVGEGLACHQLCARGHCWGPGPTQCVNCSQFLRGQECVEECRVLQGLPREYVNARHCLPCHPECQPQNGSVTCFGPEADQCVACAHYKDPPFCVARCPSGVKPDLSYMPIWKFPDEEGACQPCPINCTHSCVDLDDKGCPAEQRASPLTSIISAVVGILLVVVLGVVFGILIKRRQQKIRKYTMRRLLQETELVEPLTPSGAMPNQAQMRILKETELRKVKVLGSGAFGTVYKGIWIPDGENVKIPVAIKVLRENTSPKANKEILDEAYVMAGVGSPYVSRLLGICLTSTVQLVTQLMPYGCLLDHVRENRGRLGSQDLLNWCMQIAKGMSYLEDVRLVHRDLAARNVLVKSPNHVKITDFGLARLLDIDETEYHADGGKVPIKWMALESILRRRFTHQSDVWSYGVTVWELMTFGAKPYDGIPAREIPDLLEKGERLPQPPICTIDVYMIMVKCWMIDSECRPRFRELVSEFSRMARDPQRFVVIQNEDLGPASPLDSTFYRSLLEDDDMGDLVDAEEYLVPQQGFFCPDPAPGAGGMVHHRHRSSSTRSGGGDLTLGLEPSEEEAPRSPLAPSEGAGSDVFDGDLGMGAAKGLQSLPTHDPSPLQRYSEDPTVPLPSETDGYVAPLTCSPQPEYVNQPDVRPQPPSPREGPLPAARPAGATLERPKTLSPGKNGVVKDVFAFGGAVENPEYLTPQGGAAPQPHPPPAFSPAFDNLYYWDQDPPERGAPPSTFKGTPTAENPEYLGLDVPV
T6 sequence (P35968 20-1356, species assumed): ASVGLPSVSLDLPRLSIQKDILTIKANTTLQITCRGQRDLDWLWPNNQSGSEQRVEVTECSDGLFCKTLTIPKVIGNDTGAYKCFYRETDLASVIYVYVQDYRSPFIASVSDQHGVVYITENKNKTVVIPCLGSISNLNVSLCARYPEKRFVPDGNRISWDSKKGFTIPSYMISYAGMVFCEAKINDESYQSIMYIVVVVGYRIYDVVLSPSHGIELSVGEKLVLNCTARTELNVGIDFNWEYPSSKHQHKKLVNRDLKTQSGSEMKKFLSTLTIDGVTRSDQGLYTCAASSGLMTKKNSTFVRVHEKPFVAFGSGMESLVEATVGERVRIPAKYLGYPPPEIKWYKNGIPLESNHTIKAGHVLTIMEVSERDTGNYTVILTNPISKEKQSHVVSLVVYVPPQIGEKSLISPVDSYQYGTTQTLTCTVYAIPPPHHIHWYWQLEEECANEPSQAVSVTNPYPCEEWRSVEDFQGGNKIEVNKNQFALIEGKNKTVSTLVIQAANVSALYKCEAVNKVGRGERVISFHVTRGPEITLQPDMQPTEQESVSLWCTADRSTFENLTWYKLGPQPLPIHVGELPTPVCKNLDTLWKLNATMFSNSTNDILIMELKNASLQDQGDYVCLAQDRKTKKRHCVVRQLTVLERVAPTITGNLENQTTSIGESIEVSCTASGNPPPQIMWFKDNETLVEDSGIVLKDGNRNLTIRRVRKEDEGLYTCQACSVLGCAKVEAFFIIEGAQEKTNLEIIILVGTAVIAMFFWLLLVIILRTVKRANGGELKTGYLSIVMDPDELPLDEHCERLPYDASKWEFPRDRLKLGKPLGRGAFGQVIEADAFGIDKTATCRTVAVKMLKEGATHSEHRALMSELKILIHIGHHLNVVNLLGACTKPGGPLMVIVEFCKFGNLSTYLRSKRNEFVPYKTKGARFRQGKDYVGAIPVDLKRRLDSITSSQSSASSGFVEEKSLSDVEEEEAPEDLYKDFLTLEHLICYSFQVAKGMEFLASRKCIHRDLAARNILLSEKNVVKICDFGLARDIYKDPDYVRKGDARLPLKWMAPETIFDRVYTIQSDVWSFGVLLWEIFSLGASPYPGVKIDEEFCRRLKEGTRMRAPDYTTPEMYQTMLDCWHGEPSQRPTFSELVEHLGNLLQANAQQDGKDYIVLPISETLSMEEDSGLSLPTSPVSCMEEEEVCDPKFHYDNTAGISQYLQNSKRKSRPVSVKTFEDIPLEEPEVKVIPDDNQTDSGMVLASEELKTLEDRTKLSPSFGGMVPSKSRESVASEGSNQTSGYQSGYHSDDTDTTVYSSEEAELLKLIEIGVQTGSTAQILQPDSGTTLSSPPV
T1 sequence (P06239 whole entry, species assumed, the tested form may be a part): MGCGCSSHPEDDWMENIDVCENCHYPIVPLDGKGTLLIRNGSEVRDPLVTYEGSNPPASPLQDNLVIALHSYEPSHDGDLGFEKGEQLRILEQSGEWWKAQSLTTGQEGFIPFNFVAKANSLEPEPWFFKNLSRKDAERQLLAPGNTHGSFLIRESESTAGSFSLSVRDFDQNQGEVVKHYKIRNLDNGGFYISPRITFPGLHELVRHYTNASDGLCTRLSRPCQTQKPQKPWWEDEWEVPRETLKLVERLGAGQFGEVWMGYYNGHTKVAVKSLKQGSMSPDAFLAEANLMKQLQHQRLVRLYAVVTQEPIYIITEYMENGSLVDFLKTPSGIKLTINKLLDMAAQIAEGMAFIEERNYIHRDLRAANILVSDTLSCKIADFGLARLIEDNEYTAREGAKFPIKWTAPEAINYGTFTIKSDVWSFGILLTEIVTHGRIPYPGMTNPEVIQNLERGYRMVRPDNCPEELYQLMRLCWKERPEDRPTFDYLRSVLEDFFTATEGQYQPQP
T7 sequence (P08581 25-1390): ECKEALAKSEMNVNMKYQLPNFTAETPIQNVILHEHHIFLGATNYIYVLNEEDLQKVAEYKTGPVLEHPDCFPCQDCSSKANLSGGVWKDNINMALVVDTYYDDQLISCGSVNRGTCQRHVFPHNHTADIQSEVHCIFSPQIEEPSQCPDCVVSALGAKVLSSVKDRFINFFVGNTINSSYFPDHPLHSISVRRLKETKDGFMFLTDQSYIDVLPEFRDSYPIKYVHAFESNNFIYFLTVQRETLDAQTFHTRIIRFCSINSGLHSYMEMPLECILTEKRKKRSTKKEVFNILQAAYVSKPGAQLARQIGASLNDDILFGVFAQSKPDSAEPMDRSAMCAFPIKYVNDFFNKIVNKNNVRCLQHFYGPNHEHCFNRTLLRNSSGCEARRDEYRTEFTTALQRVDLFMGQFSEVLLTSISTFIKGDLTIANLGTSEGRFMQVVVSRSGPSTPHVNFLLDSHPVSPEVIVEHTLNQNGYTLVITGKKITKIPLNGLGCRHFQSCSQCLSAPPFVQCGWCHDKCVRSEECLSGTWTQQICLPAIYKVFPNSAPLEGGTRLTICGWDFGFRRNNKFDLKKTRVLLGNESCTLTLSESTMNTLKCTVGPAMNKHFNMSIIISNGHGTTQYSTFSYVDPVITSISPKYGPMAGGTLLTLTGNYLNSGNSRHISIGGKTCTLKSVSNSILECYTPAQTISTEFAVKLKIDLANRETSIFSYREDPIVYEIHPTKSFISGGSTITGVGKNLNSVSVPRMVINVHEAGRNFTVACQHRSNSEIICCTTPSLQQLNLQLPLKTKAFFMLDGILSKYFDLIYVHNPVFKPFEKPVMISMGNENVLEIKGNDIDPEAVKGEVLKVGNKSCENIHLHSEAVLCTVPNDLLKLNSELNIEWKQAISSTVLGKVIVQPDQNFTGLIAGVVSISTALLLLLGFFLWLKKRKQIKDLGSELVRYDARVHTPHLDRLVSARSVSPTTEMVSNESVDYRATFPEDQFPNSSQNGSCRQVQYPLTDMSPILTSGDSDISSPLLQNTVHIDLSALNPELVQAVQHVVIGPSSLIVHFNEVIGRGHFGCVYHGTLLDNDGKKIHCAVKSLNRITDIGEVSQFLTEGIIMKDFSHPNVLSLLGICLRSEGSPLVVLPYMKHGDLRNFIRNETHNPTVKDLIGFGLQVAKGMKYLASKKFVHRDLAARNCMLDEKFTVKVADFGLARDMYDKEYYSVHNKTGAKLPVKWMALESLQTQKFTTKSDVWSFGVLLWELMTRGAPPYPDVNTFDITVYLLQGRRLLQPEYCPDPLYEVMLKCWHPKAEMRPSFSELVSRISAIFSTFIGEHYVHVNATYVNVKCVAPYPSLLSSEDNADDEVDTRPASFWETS
T8 sequence (Q9Y243 whole entry, the tested form may be a part): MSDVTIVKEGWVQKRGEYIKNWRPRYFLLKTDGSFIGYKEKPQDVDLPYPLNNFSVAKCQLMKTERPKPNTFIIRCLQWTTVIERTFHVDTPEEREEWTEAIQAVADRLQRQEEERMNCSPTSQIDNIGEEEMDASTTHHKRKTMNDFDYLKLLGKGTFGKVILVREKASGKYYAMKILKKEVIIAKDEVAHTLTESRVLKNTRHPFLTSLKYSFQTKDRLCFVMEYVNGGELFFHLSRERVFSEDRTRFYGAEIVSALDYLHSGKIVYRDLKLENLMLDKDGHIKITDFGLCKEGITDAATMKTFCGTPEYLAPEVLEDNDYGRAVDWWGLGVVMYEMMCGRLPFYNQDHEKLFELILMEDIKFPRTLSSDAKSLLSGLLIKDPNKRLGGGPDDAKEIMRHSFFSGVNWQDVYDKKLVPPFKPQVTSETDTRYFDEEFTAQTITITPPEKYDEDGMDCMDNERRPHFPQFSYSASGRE

| IC50 (Lck) | IC50 (Zap-70) [µM] | IC50 (Itk) | IC50 (EGFR) | IC50 (ErbB2) | IC50 (Kdr) [µM] | IC50 (c-Met) [µM] | IC50 (AKT) | IC50 (IGFR-1) | IC50 (PDGFRB) [µM] | SMILES |
| --- | --- | --- | --- | --- | --- | --- | --- | --- | --- | --- |
| 0.824 to 4.94 µM | > 9.27 | 0.824 to 4.94 µM | < 0.824 µM | 0.824 to 4.94 µM | 0.824 to 4.94 | 0.824 to 4.94 | 0.824 to 4.94 µM | > 9.27 µM | < 0.824 | Cc1nccc(-c2cccc(Nc3ncnc(Nc4ccc5c(cnn5Cc5ccccc5)c4)n3)c2)n1 [Compound 901] |
| > 12.2 µM | > 12.2 | > 12.2 µM | > 12.2 µM | > 12.2 µM | > 12.2 | > 12.2 | > 12.2 µM | > 12.2 µM | 1.08 to 6.5 | COC(=O)c1ccc(-c2cc(Nc3ncnc(NCCCO)n3)[nH]n2)cc1 [Compound 818] |
| > 10.5 µM | > 10.5 | > 10.5 µM | < 0.935 µM | 0.935 to 5.61 µM | 0.935 to 5.61 | 0.935 to 5.61 | > 10.5 µM | > 10.5 µM | < 0.935 | COc1cc(Nc2ncnc(N3CCCc4c(Cl)cccc43)n2)cc(OC)c1OC [Compound 643] |
| > 10.4 µM | > 10.4 | > 10.4 µM | > 10.4 µM | 0.927 to 5.56 µM | 8.11 to 10.4 | > 10.4 | > 10.4 µM | > 10.4 µM | 0.927 to 5.56 | COC(=O)c1ccc(-c2cc(Nc3ncnc(NCc4ccccc4OC)n3)[nH]n2)cc1 [Compound 815] |
| 0.913 to 5.48 µM | > 10.3 | > 10.3 µM | < 0.913 µM | < 0.913 µM | 0.913 to 5.48 | < 0.913 | > 10.3 µM | > 10.3 µM | 0.913 to 5.48 | CN(c1cccc(Br)c1)c1ncnc(Nc2cccc(Cc3nnn[nH]3)c2)n1 [Compound 670] |
| > 11.7 µM | > 11.7 | 9.12 to 11.7 µM | 1.04 to 6.25 µM | > 11.7 µM | 1.04 to 6.25 | 1.04 to 6.25 | > 11.7 µM | > 11.7 µM | 1.04 to 6.25 | Cc1ccc(Cl)cc1Nc1ncnc(N2c3ccc(F)cc3CCC2C)n1 (stereo not drawn) [Compound 644] |
| 0.97 to 5.82 µM | > 10.9 | > 10.9 µM | < 0.97 µM | 0.97 to 5.82 µM | < 0.97 | 0.97 to 5.82 | > 10.9 µM | > 10.9 µM | < 0.97 | O=C(O)Cc1cccc(Nc2ncnc(-c3cccnc3NCc3ccccc3)n2)c1 [Compound 1099] |
| > 9.52 µM | > 9.52 | > 9.52 µM | > 9.52 µM | > 9.52 µM | 7.41 to 9.52 | > 9.52 | > 9.52 µM | > 9.52 µM | 0.846 to 5.08 | COc1cc(Nc2ncnc(-c3cccnc3NCC(C)c3ccccc3)n2)cc(OC)c1OC (stereo not drawn) [Compound 890] |
| 1.03 to 6.19 µM | > 11.6 | 1.03 to 6.19 µM | 6.19 to 9.03 µM | > 11.6 µM | 1.03 to 6.19 | 6.19 to 9.03 | 6.19 to 9.03 µM | > 11.6 µM | 1.03 to 6.19 | CC(C)Nc1ncccc1-c1ncnc(Nc2cccc(Cn3ccnn3)c2)n1 [Compound 1098] |
| 1.01 to 6.07 µM | > 11.4 | > 11.4 µM | 1.01 to 6.07 µM | 6.07 to 8.85 µM | 8.85 to 11.4 | > 11.4 | > 11.4 µM | > 11.4 µM | 8.85 to 11.4 | COc1cc(Nc2ncnc(NC(=O)Cc3ccccc3)n2)cc(OC)c1OC [Compound 679] |
| > 11.2 µM and 0.994 to 5.96 µM | > 11.2 | > 11.2 µM and 8.7 to 11.2 µM | > 11.2 µM and 0.994 to 5.96 µM | > 11.2 µM and 0.994 to 5.96 µM | < 0.994 | > 11.2 | 8.7 to 11.2 µM and > 11.2 µM | > 11.2 µM and 8.7 to 11.2 µM | < 0.994 | OCc1cccc(Nc2ncnc(-c3cccnc3NCc3ccc(F)cc3)n2)c1 [Compound 1104] |
| > 12 µM | > 12 | > 12 µM | 1.07 to 6.42 µM | 6.42 to 9.36 µM | < 1.07 | 9.36 to 12 | > 12 µM | 9.36 to 12 µM | < 1.07 | O=C(O)Cc1cccc(Nc2ncnc(Nc3ccc(Cl)cc3F)n2)c1 [Compound 968] |
| 1.04 to 6.22 µM | > 11.7 | 1.04 to 6.22 µM | < 1.04 µM | 1.04 to 6.22 µM | 1.04 to 6.22 | 1.04 to 6.22 | > 11.7 µM | 1.04 to 6.22 µM | 1.04 to 6.22 | CCN(c1cccc(Cl)c1)c1ncnc(Nc2cc(OC)cc(OC)c2)n1 [Compound 724] |
| > 12.7 µM | > 12.7 | > 12.7 µM | 1.13 to 6.79 µM | > 12.7 µM | > 12.7 | 1.13 to 6.79 | 1.13 to 6.79 µM | > 12.7 µM | 1.13 to 6.79 | Cc1ccc2c(c1)CCCN2c1ncnc(Nc2ccc(F)c(F)c2)n1 [Compound 893] |
| 6.01 to 8.76 µM | 8.76 to 11.3 | > 11.3 µM | < 1 µM | < 1 µM | < 1 | < 1 | > 11.3 µM | > 11.3 µM | 1 to 6.01 | Cc1ccc2c(c1)CCCN2c1ncnc(Nc2cccc(Cc3nnn[nH]3)c2)n1 [Compound 635] |
| 1.01 to 6.03 µM | > 11.3 | < 1.01 µM | < 1.01 µM | 1.01 to 6.03 µM | < 1.01 | 1.01 to 6.03 | > 11.3 µM | 8.8 to 11.3 µM | 1.01 to 6.03 | C=CCN(c1cccc(Cl)c1)c1ncnc(Nc2cc(OC)cc(OC)c2)n1 [Compound 722] |
| < 1.03 µM | > 11.6 | 1.03 to 6.19 µM | 1.03 to 6.19 µM | 1.03 to 6.19 µM | 6.19 to 9.03 | 1.03 to 6.19 | > 11.6 µM | < 1.03 µM | 1.03 to 6.19 | COc1ccc(Nc2ncnc(Nc3cc(-c4ccc(C)cc4)n[nH]3)n2)c(C)c1 [Compound 1126] |
| 5.13 to 7.49 µM | > 9.63 | 0.856 to 5.13 µM | 0.856 to 5.13 µM | 0.856 to 5.13 µM | 0.856 to 5.13 | 0.856 to 5.13 | 5.13 to 7.49 µM | 0.856 to 5.13 µM | 0.856 to 5.13 | COC(=O)c1ccc(-c2cc(Nc3ncnc(Nc4cccc(S(=O)(=O)O)c4)n3)[nH]n2)cc1 [Compound 882] |
| > 11.7 µM | > 11.7 | > 11.7 µM | > 11.7 µM | – | > 11.7 | > 11.7 | > 11.7 µM | > 11.7 µM | > 11.7 | COc1ccc(Nc2ncnc(NCc3ccc(C)c(Cl)c3)n2)cc1OC [Compound 793] |
| > 11.8 µM | > 11.8 | > 11.8 µM | 1.05 to 6.28 µM | > 11.8 µM | > 11.8 | < 1.05 | > 11.8 µM | > 11.8 µM | – | COc1ccc(Nc2ncnc(N(C)c3ccc([N+](=O)[O-])cc3)n2)cc1OC [Compound 862] |
